Assay type in all cases: cell-based
Details in all cases: Homo sapiens, MIA PaCa-2, 72 h, 3 d, CellTiter-Glo

The subject of assay [1] is Miapaca-2 mutant cells KRAS G12C + V8A. Description: Stable KRAS mutant cell line viability assay (CTG), G12C + V8A. An excerpt:
(§1) The aim of the study was to determine the potency and efficacy of compounds for cell proliferation using CellTiter-Glo® (CTG) Luminescent Cell Viability Assay (Promega Corp., Madison, WI). We cloned […] KRAS^G12C variant sequences with secondary mutations (V8A, V9Y, S17E, T58I, A59T, S65W, R68S, D69P, M72I, D92R, H95N, Y96D, Q99F, Q99W, Y96H, and F156L) into the Miapaca-2. Totally 14 stable Miapaca-2 mutant cell lines were established through lentivirus infection. For the cell viability assay, cells were dosed with compounds in a 9-point dose-response using a 4 fold dilution series at a top dose of 10 μM. KRAS mutant cells were maintained in DMEM+10% FBS+2.5% HI Horse serum+1% PS+1 μg/mL Puromycin and seeded into 96-well plates at 800-1,500 cells per well 24 h before compound addition and then incubated with compound for 3 d before assaying viability (CellTiter-Glo, Promega). Assays were performed in biological duplicates. Nonlinear regression curves were fitted using Xfit. IC50 (absolute IC50) is the dose at which the estimated viability is 50% relative to untreated wells.

For assay [2], the system named is Miapaca-2 mutant cells KRAS G12C + V9Y. Description: Stable KRAS mutant cell line viability assay (CTG), G12C + V9Y.
Text: as §1

The subject of assay [3] is Miapaca-2 mutant cells KRAS G12C + S17E. Description: Stable KRAS mutant cell line viability assay (CTG), G12C + S17E.
Text: as §1

Assay [4] deals with Miapaca-2 mutant cells KRAS G12C + A59T. Description: Stable KRAS mutant cell line viability assay (CTG), G12C + A59T.
Text: as §1

Assay [5] has as its system Miapaca-2 mutant cells KRAS G12C + T58I. Description: Stable KRAS mutant cell line viability assay (CTG), G12C + T58I.
Text: as §1

The test system of assay [6] is Miapaca-2 mutant cells KRAS G12C + D60P. Description: Stable KRAS mutant cell line viability assay (CTG), G12C + D60P.
Assay [7] deals with Miapaca-2 mutant cells KRAS G12C + S65W. Description: Stable KRAS mutant cell line viability assay (CTG), G12C + S65W.
Text: as §1

Assay [8] concerns Miapaca-2 mutant cells KRAS G12C + R68S. Description: Stable KRAS mutant cell line viability assay (CTG), G12C + R68S.
Text: as §1

The subject of assay [9] is Miapaca-2 mutant cells KRAS G12C + M72I. Description: Stable KRAS mutant cell line viability assay (CTG), G12C + M72I.
Text: as §1

Assay [10] has as its system Miapaca-2 mutant cells KRAS G12C + D92R. Description: Stable KRAS mutant cell line viability assay (CTG), G12C + D92R.
Text: as §1

The subject of assay [11] is Miapaca-2 mutant cells KRAS G12C + H95N. Description: Stable KRAS mutant cell line viability assay (CTG), G12C + H95N.
Text: as §1

Assay [12] has as its system Miapaca-2 mutant cells KRAS G12C + Y96D. Description: Stable KRAS mutant cell line viability assay (CTG), G12C + Y96D.
Text: as §1

In assay [13] the test system is Miapaca-2 mutant cells KRAS G12C + Q99W. Description: Stable KRAS mutant cell line viability assay (CTG), G12C + Q99W.
Text: as §1

The subject of assay [14] is Miapaca-2 mutant cells KRAS G12C + F156L. Description: Stable KRAS mutant cell line viability assay (CTG), G12C + F156L.
Text: as §1

Each structure is given as a SMILES string.

Consider `CCn1c(-c2cc(N3CCOCC3)cnc2[C@H](C)OC)c2c3cc(c(F)cc31)-c1csc(n1)C[C@H](NC(=O)[C@H](C(C)C)N(C)C(=O)[C@H]1C[C@@H](C#CC(F)(F)F)C1)C(=O)N1CCC[C@H](N1)C(=O)OCC(C)(C)C2` (atropisomer, axis not shown; (M)) [Example 11, cis-N-[(1S)-1-[[(7S,13S)-21-ethyl-24-fluoro-(20M)-20-[2-[(1S)-1-methoxyethyl]-5-morpholino-3-pyridyl]-17,17-dimethyl-8,14-dioxo-15-oxa-4-thia-9,21,27,28-tetrazapentacyclo[17.5.2.1^2,5.1^9,13.0^22,26]octacosa-1(25),2,5(28),19,22(26),23-hexaen-7-yl]carbamoyl]-2-methyl-propyl]-N-methyl-3-(3,3,3-trifluoroprop-1-ynyl)cyclobutanecarboxamide], for which the concentration for half-maximal inhibition (IC50) in assay [1] came out at 0.001 µM; in assay [2], 0.003 µM; in [3] it was 0.003 µM; in [4], 0.032 µM; in [5] it was 0.003 µM; in assay [6], 0.097 µM. Moreover, the IC50 was 0.003 µM in [7]; 0.022 µM in [8]; 0.001 µM in [9]; 0.002 µM in assay [10]; 0.003 µM in assay [11]; 0.006 µM in assay [12]. The IC50 in [13] and in assay [14] was 0.003 µM in each case.

(Values after patent publication US20250257075A1, “MACROCYCLIC INHIBITORS OF KRAS FOR THE TREATMENT OF CANCER” (Hoffmann-La Roche Inc., priority 2022, published 2025).)
